Data taken from ChEMBL document CHEMBL4680246, “Design, synthesis and biological evaluation of novel O-carbamoyl ferulamide derivatives as multi-target-directed ligands for the treatment of Alzheimer's disease” (Eur J Med Chem, 2020).
Calls of active or inactive are those of the source. No cut-off for these calls is given here.

Tests used:
HT-22 [1] = test: Down regulation of tau protein expression in mouse HT22 cells transfected with pRK5-GFP-Tau plasmid at 2.5 to 20 uM by Western blot analysis; type: functional, cell-based; conditions: dose 2.5-20 µM
[2] = Effect on tau protein level in mouse HT22 cells transfected with pRK5-GFP-Tau plasmid assessed as fluorescence intensity at 2.5 uM by fluorescence microscopy (Rvb <= 40.9); type: functional, HT-22
HT-22 [3] = test: Cytotoxicity against mouse HT22 cells assessed as effect on cell viability at 10 uM by MTT assay; type: cell-based; conditions: ht-22, 10 µM
[4] = molecular target: Amyloid-beta precursor protein (Homo sapiens) (UniProt P05067); test: Disaggregation of self-induced amyloid beta (1 to 42) (unknown origin) preformed fibrils at 25 uM measured after 24 hrs by transmission electron microscopic analysis
Sequence of Amyloid-beta precursor protein (Homo sapiens) (P05067 whole entry): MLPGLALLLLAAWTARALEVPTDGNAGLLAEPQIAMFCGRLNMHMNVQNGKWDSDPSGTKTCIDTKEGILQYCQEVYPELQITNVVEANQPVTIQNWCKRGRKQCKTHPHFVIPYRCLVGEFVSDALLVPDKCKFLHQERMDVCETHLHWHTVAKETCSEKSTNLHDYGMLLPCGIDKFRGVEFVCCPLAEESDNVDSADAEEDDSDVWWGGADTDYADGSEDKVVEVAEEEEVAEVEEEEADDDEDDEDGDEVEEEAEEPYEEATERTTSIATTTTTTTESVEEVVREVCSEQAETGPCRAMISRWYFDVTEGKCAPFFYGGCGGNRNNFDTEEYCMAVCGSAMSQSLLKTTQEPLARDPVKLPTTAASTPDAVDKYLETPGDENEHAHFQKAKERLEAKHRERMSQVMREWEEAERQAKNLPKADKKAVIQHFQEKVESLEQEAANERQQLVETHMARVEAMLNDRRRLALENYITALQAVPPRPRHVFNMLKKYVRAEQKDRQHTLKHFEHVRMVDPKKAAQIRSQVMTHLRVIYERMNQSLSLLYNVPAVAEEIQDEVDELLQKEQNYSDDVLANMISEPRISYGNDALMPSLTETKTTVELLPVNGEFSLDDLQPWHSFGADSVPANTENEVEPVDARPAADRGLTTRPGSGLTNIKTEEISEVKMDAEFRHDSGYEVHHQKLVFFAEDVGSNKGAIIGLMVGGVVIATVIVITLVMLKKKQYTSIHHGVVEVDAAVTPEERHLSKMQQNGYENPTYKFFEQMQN

Cholinesterase [5] = molecular target: T1, Cholinesterase (Homo sapiens, UniProt P06276); test: Inhibition of human serum BuChE assessed as residual activity at IC50 using acetylcholine iodide as substrate measured by Ellman's method relative to control
T1 sequence (P06276 whole entry): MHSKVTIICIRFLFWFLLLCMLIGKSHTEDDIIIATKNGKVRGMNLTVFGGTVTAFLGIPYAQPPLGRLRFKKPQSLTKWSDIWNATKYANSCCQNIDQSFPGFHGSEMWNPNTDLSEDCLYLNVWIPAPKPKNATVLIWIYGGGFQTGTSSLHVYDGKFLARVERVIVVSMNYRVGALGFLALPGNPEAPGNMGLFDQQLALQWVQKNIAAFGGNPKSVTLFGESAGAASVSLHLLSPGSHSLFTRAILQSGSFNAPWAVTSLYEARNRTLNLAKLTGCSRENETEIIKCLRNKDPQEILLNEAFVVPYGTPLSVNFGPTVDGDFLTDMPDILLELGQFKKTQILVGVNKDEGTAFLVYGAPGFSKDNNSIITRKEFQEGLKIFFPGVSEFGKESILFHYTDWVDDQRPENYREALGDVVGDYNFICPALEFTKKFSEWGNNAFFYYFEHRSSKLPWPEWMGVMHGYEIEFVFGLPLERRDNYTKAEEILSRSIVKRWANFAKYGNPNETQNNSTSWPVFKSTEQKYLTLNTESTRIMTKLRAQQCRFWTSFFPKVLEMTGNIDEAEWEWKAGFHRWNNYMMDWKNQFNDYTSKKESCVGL

Homo sapiens = species: Homo sapiens; test: Selectivity index, ratio of IC50 for human erythrocytes Ache to IC50 for human serum BuChe
Cholinesterase [6] = molecular target: T1, Cholinesterase; test: Inhibition of human serum BuChE using acetylcholine iodide as substrate incubated for 15 mins by Ellman's method
Cholinesterase [7] = molecular target: Cholinesterase (Equus caballus, UniProt P81908); test: Inhibition of equine serum BuChE using BTC as substrate after 15 mins by Ellman's method
Sequence of Cholinesterase (Equus caballus, UniProt P81908) (P81908 whole entry): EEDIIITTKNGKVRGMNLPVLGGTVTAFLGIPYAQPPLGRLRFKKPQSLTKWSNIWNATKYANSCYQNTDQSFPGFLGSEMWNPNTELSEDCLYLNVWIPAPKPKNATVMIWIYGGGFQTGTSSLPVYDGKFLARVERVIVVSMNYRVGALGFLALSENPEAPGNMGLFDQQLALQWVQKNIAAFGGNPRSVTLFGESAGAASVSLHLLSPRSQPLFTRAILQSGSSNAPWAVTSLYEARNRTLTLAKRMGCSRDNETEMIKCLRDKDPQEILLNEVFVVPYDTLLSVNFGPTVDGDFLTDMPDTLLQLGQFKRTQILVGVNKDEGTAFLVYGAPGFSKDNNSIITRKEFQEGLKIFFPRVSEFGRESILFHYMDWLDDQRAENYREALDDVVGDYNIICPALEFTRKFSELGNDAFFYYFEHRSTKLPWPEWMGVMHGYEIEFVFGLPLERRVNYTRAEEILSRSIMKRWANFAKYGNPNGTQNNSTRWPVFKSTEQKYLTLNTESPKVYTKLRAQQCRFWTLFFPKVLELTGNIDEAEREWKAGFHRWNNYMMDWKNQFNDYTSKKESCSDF

[8] = Selectivity index, ratio of IC50 for Electrophorus electricus AChE to IC50 for equine serum BuChE
[9] = Acute toxicity in Kunming mouse assessed as damage in kidney at 50 to 1000 mg/kg measured after 7 days; type: organism-based; conditions: in vivo, 168 h, dose 50-1000 mg/kg, time 7 day
[10] = Acute toxicity in Kunming mouse assessed as damage in heart at 50 to 1000 mg/kg measured after 7 days; type: organism-based; conditions: in vivo, 168 h, dose 50-1000 mg/kg, time 7 day
[11] = Effect on tau protein level in mouse HT22 cells transfected with pRK5-GFP-Tau P301L plasmid assessed as fluorescence intensity at 10 uM by fluorescence microscopy (reference value: 33.6); type: functional, HT-22
[12] = Effect on tau protein level in mouse HT22 cells transfected with pRK5-GFP-Tau P301L plasmid assessed as fluorescence intensity at 20 uM by fluorescence microscopy (reference value: 33.6); type: functional, HT-22
HT-22 [13] = test: Down regulation of tau protein expression in mouse HT22 cells transfected with pRK5-GFP-Tau P301L plasmid at 2.5 to 20 uM by Western blot analysis; type: functional, cell-based; conditions: dose 2.5-20 µM
HT-22 [14] = test: Down regulation of APP protein expression in mouse HT22 cells transfected with pEGFP-N1-APP plasmid at 10 to 20 uM by Western blot analysis; type: functional, cell-based; conditions: dose 10-20 µM
[15] = Permeability of compound by PAMPA-BBB assay; type: ADME; conditions: read-out: permeability
[16] = Cytotoxicity against human LO2 cells assessed as cell viability at 50 uM by MTT assay relative to control; type: cell-based, L02; conditions: read-out: Activity
[17] = Toxicity in Zebrafish assessed as mortality at 3.125 ug/ml relative to control; design: species or system Danio rerio; conditions: in vivo, at 3.125 µg/mL
[18] = Toxicity in Zebrafish assessed as mortality at 6.25 ug/ml relative to control; design: species or system Danio rerio; conditions: in vivo, at 6.25 µg/mL
[19] = Toxicity in Zebrafish assessed as mortality at 12.5 ug/ml relative to control; design: species or system Danio rerio; conditions: in vivo, at 12.5 µg/mL
[20] = Toxicity in Zebrafish assessed as slow blood flow at 6.25 ug/ml relative to control; type: tissue-based, Danio rerio; conditions: at 6.25 µg/mL
[21] = Toxicity in Zebrafish assessed as small or misshapen jaw at 6.25 ug/ml relative to control; design: species or system Danio rerio; conditions: in vivo, at 6.25 µg/mL
[22] = Toxicity in Zebrafish assessed as effect on kidney at 6.25 ug/ml relative to control; design: species or system Danio rerio; conditions: in vivo, at 6.25 µg/mL
[23] = Toxicity in AlCl3-induced Zebrafish model of Alzheimer's disease assessed as mortality at 2.5 ug/ml relative to control; design: species or system Danio rerio; conditions: in vivo, at 2.5 µg/mL
[24] = Toxicity in AlCl3-induced Zebrafish model of Alzheimer's disease assessed as mortality at 50 ug/ml relative to control; design: species or system Danio rerio; conditions: in vivo, at 50 µg/mL
[25] = Toxicity in AlCl3-induced Zebrafish model of Alzheimer's disease assessed as mortality at 100 ug/ml relative to control; design: species or system Danio rerio; conditions: in vivo, at 100 µg/mL
[26] = Toxicity in AlCl3-induced Zebrafish model of Alzheimer's disease assessed as mortality at 200 ug/ml relative to control; design: species or system Danio rerio; conditions: in vivo, at 200 µg/mL
[27] = Toxicity in AlCl3-induced Zebrafish model of Alzheimer's disease; design: species or system Danio rerio; conditions: in vivo
Danio rerio [28] = species: Danio rerio; test: Antialzheimer activity in AlCl3-induced Zebrafish model of Alzheimer's disease assessed as motility distance at […] (reference value: 5346 mm); type: functional; conditions: dose 0.11 µg/ml
Danio rerio [29] = species: Danio rerio; test: Antialzheimer activity in AlCl3-induced Zebrafish model of Alzheimer's disease assessed as increase in motility distance at […] relative to control; type: functional; conditions: dose 0.11 µg/ml
Danio rerio [30] = species: Danio rerio; test: Antialzheimer activity in AlCl3-induced Zebrafish model of Alzheimer's disease assessed as increase in motility distance at 0.33 ug/ml relative to control; type: functional; conditions: dose 0.33 µg/ml
Danio rerio [31] = species: Danio rerio; test: Antialzheimer activity in AlCl3-induced Zebrafish model of Alzheimer's disease assessed as change in motility speed at 0.33 ug/ml (reference value: 1.08 mm/s); type: functional; conditions: dose 0.33 µg/ml
Danio rerio [32] = species: Danio rerio; test: Antialzheimer activity in AlCl3-induced Zebrafish model of Alzheimer's disease assessed as increase in motility speed at […] relative to control; type: functional; conditions: dose 0.11 µg/ml
Danio rerio [33] = species: Danio rerio; test: Protection against amyloid beta (1 to 42)-induced zebrafish model of vascular injury assessed as vascular injury rate at […] (reference value: 73.3%); type: functional; conditions: dose 0.11 µg/ml
[34] = Acute toxicity in Kunming mouse assessed as lethargy at 250 to 1000 mg/kg; type: organism-based; conditions: in vivo, dose 250-1000 mg/kg
[35] = Effect on spontaneous alteration behavior in mouse assessed as change in total arm entry at 5 to 20 mg/kg by Y-maze test; type: ADME, organism-based; conditions: in vivo, dose 5-20 mg/kg
Mus musculus [36] = test: Improvement in cognitive impairment in scopolamine-induced mouse model of amnesia assessed as change in spontaneous alteration at 20 mg/kg by Y-maze test (reference value: 40.8%); type: functional
Mus musculus [37] = test: Improvement in brain cholinergic activity in scopolamine-induced mouse model of amnesia assessed as reduction in AChE vitality at 5 to 10 mg/kg; type: functional, organism-based; conditions: dose 5-10 mg/kg
Mus musculus [38] = test: Improvement in brain cholinergic activity in scopolamine-induced mouse model of amnesia assessed as change in AChE vitality at 20 mg/kg (reference value: 0.105 U/mg); type: functional
[39] = Drug metabolism in rat liver microsomes by HPLC analysis; type: ADME, Microsome

Q: What does the source list for CCN(C)C(=O)Oc1ccc(/C=C/C(=O)N2CCc3ccccc3C2)cc1OC?
A: Activity (HT-22 [1]): Active; Flu intensity [2]: 32.6; Activity (HT-22 [3]): Non-Toxic; Activity [4]: Active; Activity (Cholinesterase [5]): 53.2%; Ratio IC50 (Homo sapiens): 10.9; IC50 (Cholinesterase [6]): 970 nM; IC50 (Cholinesterase [7]): 920 nM; Ratio IC50 [8]: 12.3; Activity [9]: Non-Toxic; Activity [10]: Non-Toxic; Flu intensity [11]: 18.7; Flu intensity [12]: 17.9; Activity (HT-22 [13]): Active; Activity (HT-22 [14]): Active; Papp [15]: 21.4 ×10⁻⁶ cm/s; viability at 50 µM [16]: 46.9%; mortality at 3.125 ug/ml [17]: 0%; mortality at 6.25 ug/ml [18]: 6.7%; mortality at 12.5 ug/ml [19]: 100%; Activity [20]: 16.7%; Activity [21]: 33.3%; Activity [22]: 23.3%; mortality at 2.5 ug/ml [23]: 0%; mortality at 50 ug/ml [24]: 100%; mortality at 100 ug/ml [25]: 100%; mortality at 200 ug/ml [26]: 100%; MTD [27]: 1 µg/mL; Activity (Danio rerio [28]): <=6418 mm; Efficacy (Danio rerio [29]): 54.9%; Efficacy (Danio rerio [30]): 72.6%; Activity (Danio rerio [31]): 2.06 millimeter/sec; Efficacy (Danio rerio [32]): 57.3%; Activity (Danio rerio [33]): 80%; Activity [34]: Toxic; Activity [35]: Non-Toxic; Activity (Mus musculus [36]): 61.6%; Activity (Mus musculus [37]): Active; Activity (Mus musculus [38]): 0.1 U/mg; Drug metabolism [39]: Metabolite_Detected
